Data published in PMC10216581, “Homogeneous, Synthetic, Non-Saccharide Glycosaminoglycan Mimetics as Potent Inhibitors of Human Cathepsin G” (Biomolecules, 2023).
Values joined by “and” are separate entries in the source; they are usually repeats but may differ in a detail not shown here. Equal entries are not always repeated. “Also recorded” adds a separate entry of the source. Where two headings read alike, the source gives them in different places.

What was measured:
Human CatG [1] = biological target: T1, Human CatG (Homo sapiens, UniProt P08311); test: Michaelis-Menten kinetics of CatG hydrolysis of chromogenic substrate S-7388 in the presence of NSGM 25; format: biochemical
T1 construct: purchased Elastin Products Company (Owensville, MO, USA)
T1 sequence (P08311 21-255): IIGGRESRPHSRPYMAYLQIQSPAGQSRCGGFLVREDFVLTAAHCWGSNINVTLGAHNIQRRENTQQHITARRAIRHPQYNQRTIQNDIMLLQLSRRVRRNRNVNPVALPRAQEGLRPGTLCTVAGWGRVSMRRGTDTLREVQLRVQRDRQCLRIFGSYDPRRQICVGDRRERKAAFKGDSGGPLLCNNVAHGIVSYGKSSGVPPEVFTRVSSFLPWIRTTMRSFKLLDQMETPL
Procedure: […] The data were analyzed using the standard Michaelis–Menten equation in Sigmaplot version 12 to determine the KM and VMAX.
Figure 5 Kinetics of inhibition of 60 nM CatG by NSGM 25. Michaelis–Menten kinetics of CatG hydrolysis of chromogenic substrate (S-7388) in the presence of NSGM 25. Experiments were performed at 37 °C in 20 mM tris buffer, pH 7.4. Solid lines represent nonlinear regression analysis of the data using the standard Michaelis-Menten to calculate KM and VMAX.

human plasma [2] = test: Prothrombin time (PT) clotting assay; format: biochemical
Procedure: (§1) The impacts of NSGM 25 on activated partial thromboplastin time (aPTT) and the prothrombin time (PT) of human plasma were measured employing a standard one-stage recalcification assay at 37 °C, as previously reported. CaCl2 and thromboplastin-D were used to initiate clotting in aPTT and PT assays, respectively, in the absence and presence of NSGM 25, and the time to clot was recorded accordingly.

thrombin = test system: thrombin; design: method as in PMID 9790687; conditions: previous study; read-out: inhibitory potency; cited from earlier work
human plasma [3] = test: Activated partial thromboplastin time (aPTT) clotting assay; format: biochemical
Procedure: as §1

Human CatG [4] = biological target: T1, Human CatG; test: Direct inhibition of CatG, chromogenic substrate (S-7388) hydrolysis assay, IC50 determination; format: biochemical; conditions: 100 mM NaCl
Procedure: A chromogenic substrate hydrolysis assay was used to determine the direct inhibition of CatG by the NSGMs, as previously reported. To each well of a 96-well microplate containing 88 µL of 20 mM tris buffer, containing 100 mM NaCl, 2.5 mM CaCl2, 0.1% PEG 8000, and 0.05% Tween 80, 4 µL of CatG (final concentration of 60 nM) and 5 µL of H2O or NSGM (final concentration of 0–100 µM) were added. After incubating for a period of 5 min, 3 µL of CatG substrate (S-7388, final concentration of 750 µM) was added, and the residual CatG activity was obtained from the initial rate of increase of absorbance at 405 nm. The relative residual activity of CatG for each of the NSGMs, at the various concentrations, was calculated from the ratio of CatG activity in the presence and absence of NSGMs. The dose dependence curve was plotted using a logistic equation (see below) in Sigmaplot version 12 to obtain the IC50 (potency), Hill slope (HS), and efficacy (ΔY). Here, Y is the ratio of residual CatG activity in the presence of NSGMs to that in their absence, YO and YM are the minimum and maximum values of fractional residual CatG activity, respectively, IC50 is the concentration of the NSGM that inhibits CatG activity by 50%, and HS is the Hill slope. ΔY = YM − YO. Y=YO+YM−YO/1+10^logI0−logIC50HS
Figure 4 Representative IC50 profiles for CatG inhibition by NSGMs. Direct inhibition of human CatG was measured using the chromogenic substrate hydrolysis assay at pH 7.4 and 37 °C. Solid lines represent analysis using the logistic dose–response relationship (Equation (1)) to obtain the IC50, ΔY%, and HS. Errors represent ± 1 S.E.

human plasmin = test system: human plasmin; design: method as in PMID 9790687; conditions: previous studies; cited from earlier work
factor IXa = test system: factor IXa; design: method as in PMID 9790687; conditions: previous study; read-out: inhibitory potency; cited from earlier work
factor Xa = test system: factor Xa; design: method as in PMID 9790687; conditions: previous study; read-out: inhibitory potency; cited from earlier work
[5] = test system: human neutrophil elastase (HNE); design: method as in PMID 23735578; conditions: previous studies; cited from earlier work
factor XIIa = test system: factor XIIa; design: method as in PMID 9790687; conditions: previous study; read-out: inhibitory potency; cited from earlier work
factor XIa = test system: factor XIa; design: method as in PMID 9790687; conditions: previous study; read-out: inhibitory potency; cited from earlier work
[6] = 50 nM NSGM 25, substrate S-7388, pH 7.4, 37 °C
[7] = human plasma, concentration as high as 1 mM

## O=c1c(OS(=O)(=O)O)c(-c2ccc(OS(=O)(=O)O)c(OS(=O)(=O)O)c2)oc2cc(OS(=O)(=O)O)cc(OCc3ccc(COc4cc(OS(=O)(=O)O)cc5oc(-c6ccc(OS(=O)(=O)O)c(OS(=O)(=O)O)c6)c(OS(=O)(=O)O)c(=O)c45)cc3)c12 [NSGM 25]
Human CatG [1]; [6]
  Km: 2180 ± 270 µM
  VMAX: 52.9 ± 4.1 mAu/min
Human CatG [1]; 100 nM NSGM 25
  Km: 1310 ± 60 µM
  VMAX: 31.0 ± 0.8 mAu/min
Human CatG [1]; 150 nM NSGM 25
  Km: 870 ± 200 µM
  VMAX: 21.1 ± 2.1 mAu/min
Human CatG [1]; 200 nM NSGM 25
  Km: 800 ± 110 µM
  VMAX: 17.0 ± 1.0 mAu/min
Human CatG [1]; 400 nM NSGM 25
  Km: 770 ± 300 µM
  VMAX: 12 ± 2 mAu/min and 12.4 ± 2.1 mAu/min
Human CatG [1]; from simultaneous reduction in KM and VMAX
  mechanism of CatG inhibition: uncompetitive
Human plasma [2]; concentration required to double the PT of pooled human plasma
  PT (EC2X): >1000 µM
Human plasma [2]; [7]
  effect on PT clotting time: did not impact; also recorded: did not extend
thrombin
  IC50: > 150000 nM
Human plasma [3]; concentration required to double the aPTT of pooled human plasma
  aPTT (EC2X): >1000 µM
Human plasma [3]; [7]
  effect on aPTT clotting time: did not impact; also recorded: did not extend
Human CatG [4]; pH 7.4, read-out: IC50 (potency)
  IC50: ~50 nM and 53 nM
Human CatG [4]; Hill slope of dose-response fit, pH 7.4
  HS (Hill slope): 0.7 ± 0.1
Human CatG [4]; pH 7.4 tris buffer, 37 °C, 60 nM CatG, 750 µM S-7388, ± 1 S.E., read-out: IC50
  IC50: 50 ± 10 nM
Human CatG [4]; ΔY = YM − YO of dose-response fit, pH 7.4
  ΔY (efficacy): 95 ± 7%
Human plasmin
  IC50: ~6300 nM
Factor IXa
  IC50: > 150000 nM
Factor Xa
  IC50: > 150000 nM
[5]
  IC50: ~230 nM
Factor XIIa
  IC50: > 150000 nM
Factor XIa
  IC50: > 150000 nM
